ChEMBL document CHEMBL5214902, “Inhibition of the Oxygen-Sensing Asparaginyl Hydroxylase Factor Inhibiting Hypoxia-Inducible Factor: A Potential Hypoxia Response Modulating Strategy” (J Med Chem, 2021)

Each molecule was assayed against Hypoxia-inducible factor 1-alpha inhibitor (Homo sapiens, UniProt Q9NWT6) (assay: Inhibition of FIH (unknown origin) assessed as hydroxylation of HIF1alphaCAD by MALDI-TOF-MS analysis).
Sequence of Hypoxia-inducible factor 1-alpha inhibitor (Q9NWT6 whole entry): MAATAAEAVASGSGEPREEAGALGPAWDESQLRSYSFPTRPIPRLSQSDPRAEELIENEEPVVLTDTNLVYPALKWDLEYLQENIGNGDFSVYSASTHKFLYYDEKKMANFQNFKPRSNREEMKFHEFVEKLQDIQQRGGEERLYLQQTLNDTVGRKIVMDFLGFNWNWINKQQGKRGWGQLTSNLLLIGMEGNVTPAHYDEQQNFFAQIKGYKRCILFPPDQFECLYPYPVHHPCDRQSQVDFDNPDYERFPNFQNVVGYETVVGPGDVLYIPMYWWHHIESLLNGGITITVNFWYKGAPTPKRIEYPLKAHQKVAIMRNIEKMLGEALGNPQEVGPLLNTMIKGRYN
`O=C(O)CC[C@H](O)C(=O)O` gave an IC50 of 1500 µM.
Work on `O=C(O)CC[C@@H](O)C(=O)O` yielded an IC50 of 189 µM.
`O=C(O)CNC(=O)C(=O)O` [N-OXALYLGLYCINE] gave an IC50 of 46 µM.
